ChEMBL document CHEMBL5370623, “Discovery of Quinazoline-2,4(1H,3H)-dione Derivatives Containing a Piperizinone Moiety as Potent PARP-1/2 Inhibitors─Design, Synthesis, In Vivo Antitumor Activity, and X-ray Crystal Structure Analysis” (J Med Chem, 2023)
Converted amounts (≈) assume the structure as drawn. The source made the active and inactive calls. No cut-off for these calls is given here.

What was measured:
[1] = target: T1, Poly [ADP-ribose] polymerase 1 (Homo sapiens, UniProt P09874); experiment: Inhibition of human PARP1 in human MX1 cells assessed as enzyme-DNA trapping activity at 1 uM incubated for 24 hrs by Western blot analysis; format: cell-based
[2] = target: T1, Poly [ADP-ribose] polymerase 1; experiment: Inhibition of human recombinant PARP1 expressed in Escherichia coli BL21(DE3) incubated for 1 hr by ELISA assay
[3] = tested on: MX1; experiment: Cytotoxicity against human MX1 cells […] assessed as inhibition of cell growth measured after 72 hrs by MTT assay; format: functional, cell-based; details: MX1, 72 h
[4] = tested on: MX1; experiment: Potentiation factor, ratio of IC50 for cytotoxicity against human MX1 cells to IC50 for cytotoxicity against human MX1 cells in presence of temozolomide; format: functional
[5] = target: Poly [ADP-ribose] polymerase 2 (Homo sapiens, UniProt Q9UGN5); experiment: Inhibition of human recombinant PARP2 expressed in Escherichia coli BL21(DE3) incubated for 1 hr by ELISA assay
[6] = Half life in BALB/c mouse at 25 mg/kg, po measured upto 24 hrs by LC-MS/MS analysis; format: ADME, organism-based; details: in vivo
[7] = AUC (0 to t) in BALB/c mouse at 25 mg/kg, po measured upto 24 hrs by LC-MS/MS analysis; format: ADME, organism-based; design: time < 24 hrs, dose 25 mg/kg, route po; details: in vivo
[8] = AUC (0 to infinity) in BALB/c mouse at 25 mg/kg, po measured upto 24 hrs by LC-MS/MS analysis; format: ADME, organism-based; design: dose 25 mg/kg, time < 24 hrs, route po; details: in vivo
[9] = MRT (0 to infinity) in BALB/c mouse at 25 mg/kg, po measured upto 24 hrs by LC-MS/MS analysis; format: ADME, organism-based; details: in vivo
[10] = Tmax in BALB/c mouse at 25 mg/kg, po measured upto 24 hrs by LC-MS/MS analysis; format: ADME, organism-based; details: in vivo
[11] = MRT (0 to t) in BALB/c mouse at 25 mg/kg, po measured upto 24 hrs by LC-MS/MS analysis; format: ADME, organism-based; details: in vivo
[12] = Aqueous solubility of the compound; format: physicochemical
[13] = Cmax in BALB/c mouse at 25 mg/kg, po measured upto 24 hrs by LC-MS/MS analysis; format: ADME, organism-based; design: time < 24 hrs, dose 25 mg/kg, route po; details: in vivo

Sequence of Poly [ADP-ribose] polymerase 2 (Q9UGN5 whole entry): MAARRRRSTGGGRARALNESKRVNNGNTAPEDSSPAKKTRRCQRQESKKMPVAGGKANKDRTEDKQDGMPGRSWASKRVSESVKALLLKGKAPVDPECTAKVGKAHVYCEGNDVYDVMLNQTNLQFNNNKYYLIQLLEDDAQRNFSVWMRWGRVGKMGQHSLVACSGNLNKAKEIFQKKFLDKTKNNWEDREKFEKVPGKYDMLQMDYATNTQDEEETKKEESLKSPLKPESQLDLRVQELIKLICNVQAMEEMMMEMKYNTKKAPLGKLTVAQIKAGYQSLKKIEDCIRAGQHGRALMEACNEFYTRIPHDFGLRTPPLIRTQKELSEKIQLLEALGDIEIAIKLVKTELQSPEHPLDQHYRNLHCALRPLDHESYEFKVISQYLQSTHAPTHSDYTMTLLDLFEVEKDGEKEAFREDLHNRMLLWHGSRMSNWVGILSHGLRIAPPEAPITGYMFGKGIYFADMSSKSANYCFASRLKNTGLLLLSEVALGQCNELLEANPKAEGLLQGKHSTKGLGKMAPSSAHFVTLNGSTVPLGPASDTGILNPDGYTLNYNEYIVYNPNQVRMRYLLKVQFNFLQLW
T1 sequence (P09874 whole entry): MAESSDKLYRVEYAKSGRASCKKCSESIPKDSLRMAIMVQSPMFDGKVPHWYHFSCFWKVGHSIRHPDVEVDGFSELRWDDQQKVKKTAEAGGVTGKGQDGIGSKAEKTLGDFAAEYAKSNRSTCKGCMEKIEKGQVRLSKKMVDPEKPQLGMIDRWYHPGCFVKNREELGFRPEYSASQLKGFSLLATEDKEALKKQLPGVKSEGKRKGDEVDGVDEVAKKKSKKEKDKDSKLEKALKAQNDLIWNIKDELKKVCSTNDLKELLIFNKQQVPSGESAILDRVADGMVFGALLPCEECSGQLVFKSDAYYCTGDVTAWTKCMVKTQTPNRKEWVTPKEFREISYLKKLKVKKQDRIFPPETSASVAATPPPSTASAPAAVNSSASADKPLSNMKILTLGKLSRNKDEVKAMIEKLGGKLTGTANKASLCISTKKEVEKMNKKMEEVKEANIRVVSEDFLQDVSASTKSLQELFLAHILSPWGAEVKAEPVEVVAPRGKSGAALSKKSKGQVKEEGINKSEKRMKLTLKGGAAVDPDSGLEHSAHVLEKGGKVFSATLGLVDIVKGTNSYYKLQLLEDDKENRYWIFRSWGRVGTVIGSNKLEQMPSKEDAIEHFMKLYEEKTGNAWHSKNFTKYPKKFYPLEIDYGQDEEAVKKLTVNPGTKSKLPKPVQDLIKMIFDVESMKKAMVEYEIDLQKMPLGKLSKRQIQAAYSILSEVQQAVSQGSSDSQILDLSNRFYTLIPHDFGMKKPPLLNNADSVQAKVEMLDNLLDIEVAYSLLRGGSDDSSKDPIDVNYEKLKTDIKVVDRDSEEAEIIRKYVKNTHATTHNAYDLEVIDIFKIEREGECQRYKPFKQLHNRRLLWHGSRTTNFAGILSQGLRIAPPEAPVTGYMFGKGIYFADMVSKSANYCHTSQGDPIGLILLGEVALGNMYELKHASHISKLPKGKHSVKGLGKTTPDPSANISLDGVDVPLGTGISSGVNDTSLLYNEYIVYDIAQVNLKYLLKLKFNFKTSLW

CCCCCN1CCN(C(=O)c2cc(Cn3c(=O)[nH]c(=O)c4ccccc43)ccc2F)CC1=O
PARP1-DNA trapping activity [1]: Active | IC50 [2]: 2.71 nM | IC50 [3]: 331 nM | PF50 [4]: >10 | IC50 [5]: 0.94 nM

CCCN1CCN(C(=O)c2cc(Cn3c(=O)[nH]c(=O)c4ccccc43)ccc2F)CC1=O
IC50 [2]: 11.8 nM | IC50 [3]: 16.5 nM | PF50 [4]: >10 | IC50 [5]: 3.48 nM

CC(C)(C)CN1CCN(C(=O)c2cc(Cn3c(=O)[nH]c(=O)c4ccccc43)ccc2F)CC1=O
IC50 [2]: 3.45 nM | IC50 [3]: 23.2 nM | PF50 [4]: >10 | IC50 [5]: 0.33 nM

C=CCN1CCN(C(=O)c2cc(Cn3c(=O)[nH]c(=O)c4ccccc43)ccc2F)CC1=O
IC50 [2]: 4.18 nM | IC50 [3]: > 100 nM | IC50 [5]: 0.71 nM

CN1CCN(C(=O)c2cc(Cn3c(=O)[nH]c(=O)c4ccccc43)ccc2F)CC1=O
IC50 [2]: 3.81 nM | IC50 [3]: 51 nM | PF50 [4]: 1.18 | IC50 [5]: 5.62 nM

O=C(c1cc(Cn2c(=O)[nH]c(=O)c3ccccc32)ccc1F)N1CC(=O)N2CCCC2C1 (stereo not given)
IC50 [2]: 17.2 nM | IC50 [3]: 46.1 nM | PF50 [4]: >10 | IC50 [5]: 9.2 nM

CCC(C)CN1CCN(C(=O)c2cc(Cn3c(=O)[nH]c(=O)c4ccccc43)ccc2F)CC1=O (stereo not given)
IC50 [2]: 3.02 nM | IC50 [3]: 10.4 nM | PF50 [4]: >10 | IC50 [5]: 1.32 nM

CC(C)CN1CCN(C(=O)c2cc(Cn3c(=O)[nH]c(=O)c4ccccc43)ccc2F)CC1=O
IC50 [2]: 4.68 nM | IC50 [3]: 22.4 nM | PF50 [4]: >10 | IC50 [5]: 0.38 nM

O=C1CN(C(=O)c2cc(Cn3c(=O)[nH]c(=O)c4ccccc43)ccc2F)CCN1CC(F)(F)F
IC50 [2]: 3.79 nM | IC50 [3]: 18.6 nM | PF50 [4]: >10 | IC50 [5]: 1.87 nM

CC(C1CCCC1)N1CCN(C(=O)c2cc(Cn3c(=O)[nH]c(=O)c4ccccc43)ccc2F)CC1=O (stereo not given)
PARP1-DNA trapping activity [1]: Active | IC50 [2]: 3.67 nM | IC50 [3]: 1.18 nM | PF50 [4]: >10 | IC50 [5]: 0.22 nM

CCC(C)N1CCN(C(=O)c2cc(Cn3c(=O)[nH]c(=O)c4ccccc43)ccc2F)CC1=O (stereo not given)
IC50 [2]: 3.76 nM | IC50 [3]: 33.9 nM | PF50 [4]: >10 | IC50 [5]: 0.44 nM

CC(C)=CCN1CCN(C(=O)c2cc(Cn3c(=O)[nH]c(=O)c4ccccc43)ccc2F)CC1=O
PARP1-DNA trapping activity [1]: Active | IC50 [2]: 9.85 nM | IC50 [3]: 6.54 nM | PF50 [4]: >10 | IC50 [5]: 2.35 nM

O=C1CN(C(=O)c2cc(Cn3c(=O)[nH]c(=O)c4ccccc43)ccc2F)CCN1
IC50 [2]: 4.33 nM | IC50 [3]: > 100 nM | PF50 [4]: 3.23 | IC50 [5]: 1.88 nM

O=C(c1cc(Cn2c(=O)[nH]c(=O)c3ccccc32)ccc1F)N1CCN(c2ccccc2)C(=O)C1
PARP1-DNA trapping activity [1]: Active | IC50 [2]: 1.02 nM | IC50 [3]: 4.88 nM | PF50 [4]: >10 | IC50 [5]: 0.62 nM

CC(C1CCCCC1)N1CCN(C(=O)c2cc(Cn3c(=O)[nH]c(=O)c4ccccc43)ccc2F)CC1=O (stereo not given)
IC50 [2]: 4.92 nM | IC50 [3]: 3.65 nM | PF50 [4]: >10 | IC50 [5]: 0.26 nM

O=C1CN(C(=O)c2cc(Cn3c(=O)[nH]c(=O)c4ccccc43)ccc2F)CCN1Cc1ccccc1
PARP1-DNA trapping activity [1]: Active | IC50 [2]: 2.54 nM | IC50 [3]: 3.12 nM | PF50 [4]: >10 | IC50 [5]: 0.77 nM

CCC(CC)N1CCN(C(=O)c2cc(Cn3c(=O)[nH]c(=O)c4ccccc43)ccc2F)CC1=O
half-life [6]: 30.6 min | AUC(0-t) at 24 h [7]: 316 ng·h/mL | IC50 [2]: 3.86 nM | IC50 [3]: 0.65 nM | PF50 [4]: >10 | AUC(0-inf) [8]: 340 ng·h/mL | MRT inf [9]: 42 min | Tmax [10]: 4.8 min | MRT last at 24 h [11]: 32.4 min | solubility [12]: 30.4 µg/mL (≈ 65.1 µM) | IC50 [5]: 0.79 nM | Cmax [13]: 515 ng/mL
